# In paper PMC4280904 (Journal of Veterinary Pharmacology and Therapeutics, 2014):
# “And” between values parts separate entries of the source, which are not always exact repeats. Equal entries are not always repeated.
# How the values were obtained:
# NAT2 = experiment: In vivo enzyme induction: N-acetyltransferase, procainamide; design: species or system Wistar rats; details: rats, 3–100 mg/kg p.o. once daily 7 days
# [1] = Dose linearity of imepitoin after oral dosing; format: in vivo, beagle dogs; details: for Cmax / Tmax: both, beagle, dog, plasma, po; for Tlag obs: enteric-coated capsules, mean ± SEM, n=6
# CYP3A = experiment: In vivo enzyme induction: erythromycin N-demethylase; design: species or system Wistar rats; details: rats, 3–100 mg/kg p.o. once daily 7 days
# plasma protein [2] = experiment: In vitro plasma protein binding; format: in vitro ADME, beagle dogs; details: beagle, dog, heparinized plasma, mean ± SEM, n=3
# CYP2C8 = CYP2C8 (Homo sapiens, UniProt P10632); experiment: In vitro enzyme inhibition, recombinant CYP, fluorescent metabolites; format: in vitro ADME; details: up to the highest concentration tested (100 μM)
# CYP2C19 = CYP2C19 (Homo sapiens, UniProt P33261); experiment: as above; format: in vitro ADME
# plasma proteins = experiment: Reversibility of protein binding; format: in vitro ADME; details: human plasma, incubation up to 2 h at 37 °C, TCA precipitation
# [3] = tested on: canine idiopathic epilepsy; details: epileptic dogs, dose escalation; ref Löscher et al., 2004; Rieck et al., 2006; cited from earlier work
# NAT1 = experiment: In vivo enzyme induction: N-acetyltransferase, p-aminobenzoic acid; design: species or system Wistar rats; details: rats, 3–100 mg/kg p.o. once daily 7 days
# CYP2D1 = experiment: In vivo enzyme induction: dextromethorphan O-demethylase; design: species or system Wistar rats; details: rats, 3–100 mg/kg p.o. once daily 7 days
# plasma protein [4] = experiment: In vivo plasma protein binding in dogs dosed with [14C] imepitoin; format: in vitro ADME, beagle dogs
# CYP1A1 = CYP1A1 (Homo sapiens, UniProt P04798); experiment: In vitro enzyme inhibition, recombinant CYP, fluorescent metabolites; format: in vitro ADME
# CYP3A4 = CYP3A4 (Homo sapiens, UniProt P08684); experiment: as above; format: in vitro ADME; details: up to the highest concentration tested (100 μM)
# [5] = Excretion balance of [14C] imepitoin after oral and intravenous dosing; format: in vivo, beagle dogs; details: for Fraction excreted, Total / Fraction excreted, Urine + Cage wash / Fraction excreted, Feces: cumulative radioactivity, mean (CV %)
# CYP2C9 = CYP2C9 (Homo sapiens, UniProt P11712); experiment: In vitro enzyme inhibition, recombinant CYP, fluorescent metabolites
# plasma protein [6] = experiment: In vitro plasma protein binding; format: in vitro ADME; details: male, human
# CYP2A = experiment: In vivo enzyme induction: ethoxycoumarin O-deethylase; design: species or system Wistar rats; details: rats, 3–100 mg/kg p.o. once daily 7 days
# [7] = ref Heinecke & Thiel, 2001; cited from earlier work
# plasma protein [8] = experiment: In vitro plasma protein binding; format: in vitro ADME, rats; details: rat
# CYP2A6 = CYP2A6 (Homo sapiens, UniProt P11509); experiment: In vitro enzyme inhibition, recombinant CYP, fluorescent metabolites; format: in vitro ADME
# Chain of CYP2A6 (P11509 whole entry): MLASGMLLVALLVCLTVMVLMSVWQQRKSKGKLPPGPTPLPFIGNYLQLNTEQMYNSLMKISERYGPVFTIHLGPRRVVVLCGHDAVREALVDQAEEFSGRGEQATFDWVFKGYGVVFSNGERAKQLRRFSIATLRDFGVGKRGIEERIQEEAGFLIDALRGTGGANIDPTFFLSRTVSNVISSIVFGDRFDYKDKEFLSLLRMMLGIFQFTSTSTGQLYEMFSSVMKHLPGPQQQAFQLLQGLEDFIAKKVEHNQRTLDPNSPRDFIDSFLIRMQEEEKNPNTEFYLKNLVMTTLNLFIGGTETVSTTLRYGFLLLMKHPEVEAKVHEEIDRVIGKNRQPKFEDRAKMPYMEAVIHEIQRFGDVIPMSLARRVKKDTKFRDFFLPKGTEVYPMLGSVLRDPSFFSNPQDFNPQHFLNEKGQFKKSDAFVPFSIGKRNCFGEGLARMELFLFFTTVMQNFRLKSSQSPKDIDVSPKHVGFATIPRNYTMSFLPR
# Chain of CYP2C19 (P33261 whole entry): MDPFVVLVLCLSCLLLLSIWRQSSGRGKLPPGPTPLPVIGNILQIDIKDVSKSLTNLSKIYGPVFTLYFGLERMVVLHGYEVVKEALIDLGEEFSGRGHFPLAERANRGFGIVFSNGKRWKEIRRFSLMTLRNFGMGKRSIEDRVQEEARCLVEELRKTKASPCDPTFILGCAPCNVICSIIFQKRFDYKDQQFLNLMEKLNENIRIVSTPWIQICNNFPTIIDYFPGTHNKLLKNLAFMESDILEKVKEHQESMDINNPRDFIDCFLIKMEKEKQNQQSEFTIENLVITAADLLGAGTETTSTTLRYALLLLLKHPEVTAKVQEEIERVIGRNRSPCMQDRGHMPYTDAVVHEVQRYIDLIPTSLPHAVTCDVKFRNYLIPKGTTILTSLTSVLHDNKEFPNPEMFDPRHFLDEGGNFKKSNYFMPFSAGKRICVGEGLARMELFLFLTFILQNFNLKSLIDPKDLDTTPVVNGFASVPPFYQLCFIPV
# Chain of CYP2C9 (P11712 whole entry): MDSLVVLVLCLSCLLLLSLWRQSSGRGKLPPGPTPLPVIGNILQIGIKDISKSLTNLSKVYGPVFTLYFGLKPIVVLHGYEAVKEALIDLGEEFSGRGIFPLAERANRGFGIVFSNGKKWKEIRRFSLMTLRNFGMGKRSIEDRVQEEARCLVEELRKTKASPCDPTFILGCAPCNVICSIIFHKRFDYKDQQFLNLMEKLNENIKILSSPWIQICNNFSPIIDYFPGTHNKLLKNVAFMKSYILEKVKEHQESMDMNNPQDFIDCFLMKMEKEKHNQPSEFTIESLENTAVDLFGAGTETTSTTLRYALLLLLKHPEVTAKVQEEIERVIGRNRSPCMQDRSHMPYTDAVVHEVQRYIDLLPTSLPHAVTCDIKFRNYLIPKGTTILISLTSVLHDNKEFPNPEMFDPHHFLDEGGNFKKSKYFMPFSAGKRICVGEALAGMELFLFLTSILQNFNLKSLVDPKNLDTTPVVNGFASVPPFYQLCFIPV
# Chain of CYP3A4 (P08684 whole entry): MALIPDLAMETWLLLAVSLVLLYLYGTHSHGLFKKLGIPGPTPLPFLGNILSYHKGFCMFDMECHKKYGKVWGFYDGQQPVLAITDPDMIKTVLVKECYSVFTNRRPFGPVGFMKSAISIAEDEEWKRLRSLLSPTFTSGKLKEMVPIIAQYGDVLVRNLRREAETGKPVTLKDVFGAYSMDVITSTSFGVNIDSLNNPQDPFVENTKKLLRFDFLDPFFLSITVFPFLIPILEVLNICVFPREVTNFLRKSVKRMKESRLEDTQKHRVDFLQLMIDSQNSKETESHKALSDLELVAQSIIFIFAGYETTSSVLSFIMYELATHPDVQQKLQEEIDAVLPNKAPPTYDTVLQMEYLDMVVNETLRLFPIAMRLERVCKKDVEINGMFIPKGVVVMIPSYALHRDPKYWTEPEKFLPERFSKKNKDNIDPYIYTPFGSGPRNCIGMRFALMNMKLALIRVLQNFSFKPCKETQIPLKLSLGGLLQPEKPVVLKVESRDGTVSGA
# Chain of CYP1A1 (P04798 whole entry): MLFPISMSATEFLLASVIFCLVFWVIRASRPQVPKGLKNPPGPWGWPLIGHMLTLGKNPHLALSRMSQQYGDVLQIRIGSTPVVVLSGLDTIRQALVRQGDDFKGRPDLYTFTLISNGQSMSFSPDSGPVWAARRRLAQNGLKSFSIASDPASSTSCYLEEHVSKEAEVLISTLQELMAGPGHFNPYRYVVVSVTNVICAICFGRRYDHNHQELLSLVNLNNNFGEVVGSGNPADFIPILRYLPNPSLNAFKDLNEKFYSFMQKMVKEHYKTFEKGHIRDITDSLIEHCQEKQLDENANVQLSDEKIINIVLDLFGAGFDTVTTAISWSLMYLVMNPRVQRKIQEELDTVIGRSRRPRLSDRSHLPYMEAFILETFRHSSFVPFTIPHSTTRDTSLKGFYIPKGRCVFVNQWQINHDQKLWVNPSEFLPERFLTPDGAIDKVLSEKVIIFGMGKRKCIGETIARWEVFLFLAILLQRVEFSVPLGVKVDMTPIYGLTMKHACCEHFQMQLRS
# Chain of CYP2C8 (P10632 whole entry): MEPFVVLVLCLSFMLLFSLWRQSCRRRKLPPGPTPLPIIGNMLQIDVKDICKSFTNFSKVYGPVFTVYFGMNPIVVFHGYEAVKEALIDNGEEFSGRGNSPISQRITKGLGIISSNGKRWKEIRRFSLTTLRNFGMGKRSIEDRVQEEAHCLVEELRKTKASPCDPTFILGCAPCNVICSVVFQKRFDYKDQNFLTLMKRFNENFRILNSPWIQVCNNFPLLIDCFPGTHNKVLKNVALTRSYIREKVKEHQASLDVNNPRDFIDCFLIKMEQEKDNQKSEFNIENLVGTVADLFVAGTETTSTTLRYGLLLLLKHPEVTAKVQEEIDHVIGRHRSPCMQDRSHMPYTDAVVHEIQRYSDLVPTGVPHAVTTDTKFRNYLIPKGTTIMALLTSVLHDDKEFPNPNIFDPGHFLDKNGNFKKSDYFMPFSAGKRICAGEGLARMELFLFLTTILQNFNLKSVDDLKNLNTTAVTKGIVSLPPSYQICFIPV
structure (smiles),measurement,setting,value
"O=C1N=C(N2CCOCC2)CN1c1ccc(Cl)cc1 [Imepitoin, 1-(4-chlorophenyl)-4-morpholino-imidazolin-2-one]",induction of NAT2,NAT2,did not induce
same,Cmax,[1]; 10 mg/kg,1.81 ± 0.92 µg/mL
same,Tmax,[1]; 10 mg/kg,8.67 ± 3.1 h
same,Cmax,[1]; 20 mg/kg,3.5 ± 1.07 µg/mL
same,Tmax,[1]; 20 mg/kg,10.7 ± 4 h
same,Cmax,[1]; 50 mg/kg,6.41 ± 1.75 µg/mL
same,Tmax,[1]; 50 mg/kg,18 ± 3.8 h
same,Tmax,[1]; 100 mg/kg,8.67 ± 3.1 h
same,Tlag obs,[1]; single dose 10 mg/kg p.o.,3.67 ± 0.92 h
same,Tlag obs,[1]; single dose 20 mg/kg p.o.,5.67 ± 0.95 h
same,Tlag obs,[1]; single dose 50 mg/kg p.o.,4.17 ± 1.05 h
same,Tlag obs,[1]; single dose 100 mg/kg p.o.,2.25 ± 0.94 h
same,induction of CYP3A,CYP3A,did not induce
same,"fraction unbound at 15 min, 10 μg/mL",plasma protein [2],0.44
same,influence on activity of CYP2C8,CYP2C8,did not influence
same,IC50,CYP2C19,> 100 µM
same,"Inhibition of the specific cytochrome P450 isoform IC50, 2C19",CYP2C19; recombinant human CYP2C19,did not influence
same,radioactivity found in the washed precipitate (covalent binding),plasma proteins,less than 0.5%
same,anti-epileptic activity versus historical phenobarbital data,[3],comparable anti-epileptic activity
same,tolerability versus phenobarbital,[3],clearly superior to phenobarbital
same,induction of NAT1,NAT1,did not induce
same,induction of CYP2D1,CYP2D1,did not induce
same,in vivo plasma protein binding,plasma protein [4]; 2 h after 20 mg/kg p.o. or 1 mg/kg i.v.,59–69%
same,in vivo plasma protein binding,plasma protein [4]; 8 h after 20 mg/kg p.o. or 1 mg/kg i.v.,62–72%
same,In vivo protein binding,"plasma protein [4]; female dogs, 1 mg/kg i.v., 2 h after dosing, mean ± SEM",59 ± 0.69%
same,In vivo protein binding,"plasma protein [4]; female dogs, 1 mg/kg i.v., 4 h after dosing, mean ± SEM",66 ± 2.66%
same,In vivo protein binding,"plasma protein [4]; female dogs, 1 mg/kg i.v., 8 h after dosing, mean ± SEM",72 ± 1.33%
same,In vivo protein binding,"plasma protein [4]; female dogs, 20 mg/kg p.o., 2 h after dosing",69 (n < 3) %
same,In vivo protein binding,"plasma protein [4]; female dogs, 20 mg/kg p.o., 4 h after dosing, mean ± SEM",66 ± 0.69%
same,In vivo protein binding,"plasma protein [4]; female dogs, 20 mg/kg p.o., 8 h after dosing, mean ± SEM",62 ± 7.68%
same,In vivo protein binding,"plasma protein [4]; male dogs, 20 mg/kg p.o., 2 h after dosing",60 (n < 3) %
same,In vivo protein binding,"plasma protein [4]; male dogs, 20 mg/kg p.o., 4 h after dosing, mean ± SEM",63 ± 1.62%
same,In vivo protein binding,"plasma protein [4]; male dogs, 20 mg/kg p.o., 8 h after dosing, mean ± SEM",67 ± 2.71%
same,IC50,CYP1A1,55 µM
same,influence on activity of CYP3A4,CYP3A4,did not influence
same,"tolerability, clinical adverse events","[5]; 20 mg/kg p.o. (3 male, 3 female dogs) and 1 mg/kg i.v. (3 female dogs)",well tolerated
same,total radioactivity excreted urinary,"[5]; after oral dosing, range males/females",27–38%
same,"Fraction excreted, Total","[5]; females, 1 mg/kg i.v., 0–8 h",30.62 (n < 3) % of intravenous dose
same,"Fraction excreted, Urine + Cage wash","[5]; females, 1 mg/kg i.v., 0–8 h",30.62 (n < 3) % of intravenous dose
same,"Fraction excreted, Feces","[5]; females, 1 mg/kg i.v., 0–24 h",54.74 (n < 3) % of intravenous dose
same,"Fraction excreted, Total","[5]; females, 1 mg/kg i.v., 0–24 h",74.07 (33.4) % of intravenous dose
same,"Fraction excreted, Urine + Cage wash","[5]; females, 1 mg/kg i.v., 0–24 h",37.58 (19.1) % of intravenous dose
same,"Fraction excreted, Feces","[5]; females, 1 mg/kg i.v., 0–48 h",68.33 (n < 3) % of intravenous dose
same,"Fraction excreted, Total","[5]; females, 1 mg/kg i.v., 0–48 h",85.43 (37.2) % of intravenous dose
same,"Fraction excreted, Urine + Cage wash","[5]; females, 1 mg/kg i.v., 0–48 h",39.87 (19.9) % of intravenous dose
same,"Fraction excreted, Total","[5]; females, 1 mg/kg i.v., 0–264 h",104.43 (4.4) % of intravenous dose
same,"Fraction excreted, Feces","[5]; females, 20 mg/kg p.o., 0–8 h",0.09 (n < 3) % of oral dose
same,"Fraction excreted, Total","[5]; females, 20 mg/kg p.o., 0–8 h",8.04 (n < 3) % of oral dose
same,"Fraction excreted, Urine + Cage wash","[5]; females, 20 mg/kg p.o., 0–8 h",7.95 (n < 3) % of oral dose
same,"Fraction excreted, Feces","[5]; females, 20 mg/kg p.o., 0–24 h",40.62 (n < 3) % of oral dose
same,"Fraction excreted, Total","[5]; females, 20 mg/kg p.o., 0–24 h",63.58 (n < 3) % of oral dose
same,"Fraction excreted, Urine + Cage wash","[5]; females, 20 mg/kg p.o., 0–24 h",22.96 (n < 3) % of oral dose
same,"Fraction excreted, Feces","[5]; females, 20 mg/kg p.o., 0–48 h",45.64 (22.0) % of oral dose
same,"Fraction excreted, Total","[5]; females, 20 mg/kg p.o., 0–48 h",76.52 (20.8) % of oral dose
same,"Fraction excreted, Urine + Cage wash","[5]; females, 20 mg/kg p.o., 0–48 h",30.88 (23.3) % of oral dose
same,"Fraction excreted, Total","[5]; females, 20 mg/kg p.o., 0–264 h",93.84 (8.4) % of oral dose
same,"Fraction excreted, Total","[5]; males, 20 mg/kg p.o., 0–8 h",0.58 (n < 3) % of oral dose
same,"Fraction excreted, Urine + Cage wash","[5]; males, 20 mg/kg p.o., 0–8 h",0.58 (n < 3) % of oral dose
same,"Fraction excreted, Feces","[5]; males, 20 mg/kg p.o., 0–24 h",34.41 (92.2) % of oral dose
same,"Fraction excreted, Total","[5]; males, 20 mg/kg p.o., 0–24 h",51.11 (66.2) % of oral dose
same,"Fraction excreted, Urine + Cage wash","[5]; males, 20 mg/kg p.o., 0–24 h",16.70 (20.9) % of oral dose
same,"Fraction excreted, Feces","[5]; males, 20 mg/kg p.o., 0–48 h",75.65 (12.3) % of oral dose
same,"Fraction excreted, Total","[5]; males, 20 mg/kg p.o., 0–48 h",97.51 (6.4) % of oral dose
same,"Fraction excreted, Urine + Cage wash","[5]; males, 20 mg/kg p.o., 0–48 h",21.86 (20.5) % of oral dose
same,"Fraction excreted, Total","[5]; males, 20 mg/kg p.o., 0–264 h",104.74 (2.8) % of oral dose
same,total radioactivity excreted within 48 h,"[5]; urine + feces, range over dosing groups",76–97% and 76.5–97.5%
same,IC50,CYP2C9,> 100 µM
same,"Inhibition of the specific cytochrome P450 isoform IC50, 2C9",CYP2C9; recombinant human CYP2C9,did not influence
same,"fraction unbound at 15 min, 0.1 μg/mL",plasma protein [6]; heparinized plasma,0.43
same,"fraction unbound at 15 min, 1 μg/mL",plasma protein [6]; heparinized plasma,0.41
same,"fraction unbound at 15 min, 10 μg/mL",plasma protein [6]; heparinized plasma,0.43
same,fraction unbound at 15 min,plasma protein [6]; plasma (heparinized),0.41 to 0.43
same,induction of CYP2A,CYP2A,did not induce
same,solubility in acidic media such as gastric fluid,[7],more readily soluble in acidic media
same,solubility in aqueous media,[7],very low solubility in aqueous media
same,"fraction unbound at 15 min, 0.1 μg/mL",plasma protein [8]; heparinized plasma,0.49
same,"fraction unbound at 15 min, 1 μg/mL",plasma protein [8]; heparinized plasma,0.5 ± 0.0064
same,"fraction unbound at 15 min, 10 μg/mL",plasma protein [8]; heparinized plasma,0.5 ± 0.011
same,fraction unbound at 15 min,"plasma protein [8]; plasma (heparinized, pool of five fasted animals)",0.49 to 0.5
same,IC50,CYP2A6,> 100 µM
same,"Inhibition of the specific cytochrome P450 isoform IC50, 2A6",CYP2A6; recombinant human CYP2A6,did not influence
